Where a name gives a salt, the structure may show the parent alone.
Tests used:
[1] = target: LRRK2 Ser935 phosphorylation in SH-SY5Y cells over-expressing recombinant full length LRRK2 (Homo sapiens (Human), UniProt Q5S007); assay: Recombinant cellular LRRK2 AlphaScreen assay; assay type: cell-based; conditions: 60 minutes, read-out: Recombinant cellular LRRK2 alphaScreen assay (pIC50) (converted)
Source text: To determine the activity of compounds against LRRK2 kinase activity in cells, the observed LRRK2 kinase-dependent modulation of LRRK2 Ser 935 phosphorylation (Dzamko et al., 2010, Biochem. J. 430: 405-413) was utilized to develop a quantitative 384 well plate-based immunoassay of LRRK2 Ser935 phosphorylation in the human neuroblastoma cell line SH-SY5Y, engineered to over-express recombinant full length LRRK2 protein.
A BacMam virus expressing full length recombinant LRRK2 was purchased from Invitrogen and amplified by inoculation of SF-9 cells at MOI 0.3 for 4-5 days in Sf-900 III SFM medium supplemented with 3% fetal bovine serum. Infected cell cultures were then centrifuged at 2000 g for 20 minutes, viral supernatant titer determined by anti-gp64 plaque assay and stored at 4° C.
Affinity-purified anti-phospho LRRK2 Ser935 sheep polyclonal antibody (Dzamko et al., 2010, Biochem. J. 430: 405-413) was biotinylated by standard methods (PerkinElmer). Anti-LRRK2 rabbit polyclonal antibody was purchased from Novus Biologicals. AlphaScreen Protein A IgG Kit (including acceptor and donor beads) was purchased from Perkin Elmer.
SH-SY5Y cells were grown in DMEM/F12 medium with 10% dialysed fetal bovine serum and harvested by treatment with 0.5% trypsin-EDTA for 5 minutes at 37° C. followed by centrifugation at 1000 rpm for 4 minutes. The cell pellet was resuspended in Opti-MEM reduced serum media (Invitrogen) at 200,000 cells/ml and mixed with the BacMam LRRK2 virus at M01=50. 50 μl cell solutions were then dispensed to each well of a 384-well plate and incubated at 37° C., 5% CO2 for 24 hours.
Serial dilutions of test compounds were prepared in Opti-MEM reduced serum media (Invitrogen) and 5.6 ul transferred from compound plate to cell assay plate to achieve a top final assay concentration of 10 uM. DMSO was used in certain wells as controls. Cells were incubated at 37° C., 5% CO2 for 60 minutes. The medium was then removed and cells lysed by addition of 20 ul cell lysis buffer (Cell Signaling Technology) and incubation at 4° C. for 20 minutes. 10 ul of antibody/acceptor bead mix [( 1/1000 biotinylated-pS935 LRRK2 antibody, 1/1000 total-LRRK2 antibody, 1/100 Acceptor beads in AlphaScreen detection buffer (25 mM Hepes (pH 7.4), 0.5% Triton X-100, 1 mg/ml Dextran 500 and 0.1% BSA)] was then added to each well and plates incubated for 2 hours at ambient temperature in the dark. 10 μl of donor beads solution (1/33.3 donor beads in AlphaScreen detection buffer) was then added to each well. Following incubation for a further 2 hours at ambient temperature in the dark, plates were read on an EnVision™ plate reader at emission 520-620 nm with excitation 680 nm. Dose response curve data was based on sigmoidal dose-response model.

[2] = target: Truncated G2019 human LRRK2 (1326-2527) (Homo sapiens (Human), UniProt Q5S007); assay: Truncated G2019 human LRRK2 (1326-2527) inhibition mass spectrometry assay; assay type: biochemical; conditions: 6HIS-Tev-LRRK2 (1326-2527), 25 uM LRRKtide, 20 uM ATP; for IC50: read-out: Truncated G2019 human LRRK2 inhibition mass spectrometry assay (pIC50) (converted)
Source text: 1) Truncated G2019 Human LRRK2 (1326-2527) Inhibition Mass Spectrometry Assay
A LRRK2 cDNA encoding residues 1326-2527 was received from Dundee University (described in M. Jaleel et al., 2007, Biochem J, 405: 407-417). This gene fragment was subcloned into pFB-HTb (Invitrogen) using BamHI and NotI restriction sites. The LRRK2 plasmid was recombined into the baculovirus genome according to the BAC-to-BAC protocol described by Invitrogen. Transfection into Spodoptera frugiperda (Sf9) insect cells was performed using Cellfectin (Invitrogen), according to the manufacturer's protocol to generate P1 and P2 baculovirus stocks.
Sf9 cells were grown in HyClone SFX (Thermo Scientific) growth media at 27° C., 80 rpm in shake flask until of a sufficient volume to inoculate a bioreactor. The cells were grown in a 20 litre working volume Wave bioreactor (GE Healthcare) at 27° C., 50% dissolved oxygen and an agitation rate 22 rocks per minute, 10 degree rock angle, 200 ml/min air with a cell concentration of approximately 6xe6 cells/ml. The cells were infected with P2 Baculovirus at a multiplicity of infection (MOI) of 3. The cultivation was continued for a 48 hour expression phase. The infected cells were removed from the growth media by centrifugation at 2500 g using a Sorvall RC 3C Plus centrifuge at 2500 g for 20 minutes. The cell pellet was immediately frozen and subsequently supplied for purification.
A 260 g pellet was allowed to thaw in a water bath at 27° C. with 800 ml lysis buffer/buffer A (50 mm Tris-HCl pH 8.5, 300 mM NaCl, 1 mm DTT, 10% glycerol, 1 ml/L Calbiochem complete protease inhibitor cocktail and benzonase (50 ul/800 ml)) before being dounce homogenised on ice using 20 strokes per 100 ml. The suspension was packed in ice and sonicated at 50% amplitude for 3 min 10 sec on/off using a ¾″ probe. The suspension was then centrifuged at 100,000 g for 90 min, at 4° C.
The lysate (700 ml) was decanted from the insoluble pellet and contacted for 3h at 4° C. with 10 ml His bind Ni NTA resin by end over end mixing. The resin was recovered by centrifugation, 3000 g, 5 min at 4° C., and packed in an XK16 column. The column was then washed with 10 column volumes buffer A, 10 column volumes buffer B (buffer A+1M NaCl) and 10 column volumes buffer C (buffer A+20 mM imidazole). The column was then eluted with 15 column volumes buffer D (buffer A+300 mM imidazole) collecting 2 ml fractions. All washes and elution were conducted at 4 ml/min.
Fractions identified by SDS-PAGE as containing protein of interest were pooled and loaded directly onto a 320 ml SEC Superdex 200 pg column that was pre-equilibrated with buffer E (50 mM Tris-HCl pH 8.5, 300 mM NaCl, 10% glycerol, 1 mM DTT). The column was loaded and eluted with 1.2 column volumes buffer E at 2 ml/min collecting 2 ml fractions. Fractions identified by SDS-PAGE as containing protein of interest were tested for activity.
Production of LRRKtide for LRRK2 Inhibition Mass Spectrometry Assay
The ‘LRRKtide’ peptide (SEQ ID NO. 10) was synthesized as follows. The protected peptide was assembled on a solid-phase synthesiser using preloaded Wang resin and utilising standard Fmoc synthesis protocols. The crude peptide was obtained after cleavage from the resin with a mixture of trifluoroacetic acid (TFA), triisopropylsilane and water (95:2.5:2.5) for 3 hours at room temperature and was then purified using a C18 reverse-phase column utilising a 0.1% TFA-buffered water/acetonitrile gradient. The resulting fractions were analysed and fractions which were >95% pure by analytical HPLC and giving the correct molecular weight (mw) (by MALDiTOF mass spectroscopy) were pooled and freeze dried. The final material was analysed by HPLC and MALDiTOF mass spectroscopy.
Truncated G2019 Human LRRK2 (1326-2527) Inhibition Mass Spectrometry Assay […]

LRRK2 Ser935 phosphorylation in SH-SY5Y cells over-expressing recombinant full length LRRK2, sequence (Q5S007 whole entry): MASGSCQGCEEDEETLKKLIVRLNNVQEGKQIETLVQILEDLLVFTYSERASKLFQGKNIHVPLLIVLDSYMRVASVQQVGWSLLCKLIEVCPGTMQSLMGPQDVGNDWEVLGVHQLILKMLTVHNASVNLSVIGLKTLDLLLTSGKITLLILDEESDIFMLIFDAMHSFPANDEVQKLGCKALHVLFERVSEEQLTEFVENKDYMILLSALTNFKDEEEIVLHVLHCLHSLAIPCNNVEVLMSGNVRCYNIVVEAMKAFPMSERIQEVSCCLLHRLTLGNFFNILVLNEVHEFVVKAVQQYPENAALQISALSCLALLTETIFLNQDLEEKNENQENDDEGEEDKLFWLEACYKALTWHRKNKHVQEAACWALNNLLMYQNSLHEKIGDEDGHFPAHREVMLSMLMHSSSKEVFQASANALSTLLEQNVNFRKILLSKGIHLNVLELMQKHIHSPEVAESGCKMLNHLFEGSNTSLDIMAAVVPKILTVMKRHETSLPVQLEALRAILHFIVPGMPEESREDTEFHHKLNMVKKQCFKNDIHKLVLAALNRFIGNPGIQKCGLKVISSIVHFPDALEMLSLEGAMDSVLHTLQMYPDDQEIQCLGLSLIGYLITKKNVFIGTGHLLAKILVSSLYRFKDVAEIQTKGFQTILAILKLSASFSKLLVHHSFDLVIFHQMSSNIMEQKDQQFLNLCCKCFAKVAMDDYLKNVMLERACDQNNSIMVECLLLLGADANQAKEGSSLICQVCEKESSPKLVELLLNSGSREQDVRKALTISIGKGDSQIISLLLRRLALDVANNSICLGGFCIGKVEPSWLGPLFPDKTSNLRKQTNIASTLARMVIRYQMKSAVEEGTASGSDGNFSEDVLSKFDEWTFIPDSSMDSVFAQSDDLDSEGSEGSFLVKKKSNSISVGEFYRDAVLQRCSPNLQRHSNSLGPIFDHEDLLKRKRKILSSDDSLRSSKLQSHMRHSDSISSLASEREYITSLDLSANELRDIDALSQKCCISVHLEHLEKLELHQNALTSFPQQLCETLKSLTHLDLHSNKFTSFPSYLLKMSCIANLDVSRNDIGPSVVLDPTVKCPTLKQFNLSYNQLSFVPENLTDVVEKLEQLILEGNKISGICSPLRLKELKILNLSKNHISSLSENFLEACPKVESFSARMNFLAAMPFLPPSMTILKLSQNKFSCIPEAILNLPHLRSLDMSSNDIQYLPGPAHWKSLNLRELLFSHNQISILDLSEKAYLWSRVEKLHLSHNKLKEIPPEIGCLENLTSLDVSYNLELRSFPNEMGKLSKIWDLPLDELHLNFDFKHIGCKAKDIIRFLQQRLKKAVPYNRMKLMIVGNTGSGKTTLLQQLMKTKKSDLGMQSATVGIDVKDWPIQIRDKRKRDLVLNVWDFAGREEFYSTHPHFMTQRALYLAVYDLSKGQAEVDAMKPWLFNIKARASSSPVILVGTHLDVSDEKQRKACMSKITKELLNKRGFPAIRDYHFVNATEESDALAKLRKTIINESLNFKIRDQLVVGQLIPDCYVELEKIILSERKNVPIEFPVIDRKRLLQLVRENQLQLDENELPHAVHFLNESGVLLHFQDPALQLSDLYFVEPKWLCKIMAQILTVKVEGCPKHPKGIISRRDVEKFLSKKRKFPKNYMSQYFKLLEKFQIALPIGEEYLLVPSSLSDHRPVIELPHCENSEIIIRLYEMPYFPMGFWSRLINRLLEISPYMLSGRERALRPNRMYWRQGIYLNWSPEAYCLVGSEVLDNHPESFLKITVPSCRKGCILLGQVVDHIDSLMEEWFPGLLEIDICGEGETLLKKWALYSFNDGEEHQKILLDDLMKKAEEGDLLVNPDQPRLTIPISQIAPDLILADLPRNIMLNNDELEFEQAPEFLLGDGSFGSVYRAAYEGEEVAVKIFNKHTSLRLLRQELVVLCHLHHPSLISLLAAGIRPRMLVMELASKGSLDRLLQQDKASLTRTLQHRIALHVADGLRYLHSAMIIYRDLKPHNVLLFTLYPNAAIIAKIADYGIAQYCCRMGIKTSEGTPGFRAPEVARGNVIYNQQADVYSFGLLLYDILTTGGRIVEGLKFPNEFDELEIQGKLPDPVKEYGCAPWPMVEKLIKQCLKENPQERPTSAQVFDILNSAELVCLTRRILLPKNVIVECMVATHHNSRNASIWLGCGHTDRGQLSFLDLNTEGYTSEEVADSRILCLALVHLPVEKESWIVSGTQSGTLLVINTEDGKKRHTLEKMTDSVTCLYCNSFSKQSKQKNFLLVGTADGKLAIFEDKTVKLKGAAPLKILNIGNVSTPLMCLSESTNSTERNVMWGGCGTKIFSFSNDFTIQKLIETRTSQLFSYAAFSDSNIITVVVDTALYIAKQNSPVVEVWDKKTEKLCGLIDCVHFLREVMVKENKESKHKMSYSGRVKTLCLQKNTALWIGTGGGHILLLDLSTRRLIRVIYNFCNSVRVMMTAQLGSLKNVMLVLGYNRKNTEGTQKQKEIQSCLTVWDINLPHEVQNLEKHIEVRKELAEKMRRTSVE
Truncated G2019 human LRRK2 (1326-2527), sequence (Q5S007 1326-2527): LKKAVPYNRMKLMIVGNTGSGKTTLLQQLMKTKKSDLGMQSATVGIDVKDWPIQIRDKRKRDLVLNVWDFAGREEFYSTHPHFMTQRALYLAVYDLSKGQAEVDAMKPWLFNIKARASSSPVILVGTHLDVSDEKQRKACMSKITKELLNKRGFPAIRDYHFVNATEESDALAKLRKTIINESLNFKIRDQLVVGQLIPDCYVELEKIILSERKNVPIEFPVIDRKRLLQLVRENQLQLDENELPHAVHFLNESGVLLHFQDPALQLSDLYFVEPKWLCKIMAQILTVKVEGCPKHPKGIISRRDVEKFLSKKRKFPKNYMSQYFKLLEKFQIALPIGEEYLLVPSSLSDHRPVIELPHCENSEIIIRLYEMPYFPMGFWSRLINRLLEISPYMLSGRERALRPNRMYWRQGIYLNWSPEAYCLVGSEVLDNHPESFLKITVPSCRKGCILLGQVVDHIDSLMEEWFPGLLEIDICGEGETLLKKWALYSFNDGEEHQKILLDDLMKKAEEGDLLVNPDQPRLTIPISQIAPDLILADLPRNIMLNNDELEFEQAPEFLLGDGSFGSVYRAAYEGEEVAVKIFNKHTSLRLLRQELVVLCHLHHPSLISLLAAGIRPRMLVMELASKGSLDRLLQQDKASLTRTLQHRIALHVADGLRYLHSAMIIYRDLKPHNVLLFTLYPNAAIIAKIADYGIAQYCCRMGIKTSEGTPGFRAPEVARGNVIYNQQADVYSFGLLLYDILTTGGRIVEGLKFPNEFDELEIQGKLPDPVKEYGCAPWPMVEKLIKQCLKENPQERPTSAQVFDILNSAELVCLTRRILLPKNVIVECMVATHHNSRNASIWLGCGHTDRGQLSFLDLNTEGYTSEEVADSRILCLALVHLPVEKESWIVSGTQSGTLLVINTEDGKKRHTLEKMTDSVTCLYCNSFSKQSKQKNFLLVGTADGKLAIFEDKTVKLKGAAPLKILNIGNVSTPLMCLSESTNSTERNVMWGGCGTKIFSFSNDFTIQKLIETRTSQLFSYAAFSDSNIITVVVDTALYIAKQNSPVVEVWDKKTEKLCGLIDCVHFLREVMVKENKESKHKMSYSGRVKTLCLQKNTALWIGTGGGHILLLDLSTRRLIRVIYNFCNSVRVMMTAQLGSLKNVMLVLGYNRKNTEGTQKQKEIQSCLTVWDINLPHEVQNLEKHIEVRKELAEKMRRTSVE

Row | Structure (SMILES) | IC50 [1] [µM] | IC50 [2] [µM] | Truncated G2019 human LRRK2 inhibition mass spectrometry assay (pIC50) [2]
1 | COc1nc(N2CCOCC2)cc(-n2ncc3cc(C)c(C4CCN(C)CC4(F)F)cc32)n1 (single isomer, unassigned) [Example E4, 4-(6-(6-(3,3-Difluoro-1-methylpiperidin-4-yl)-5-methyl-1H-indazol-1-yl)-2-methoxypyrimidin-4-yl)morpholine] | 0.0251 | 0.00794 | –
2 | CNC(=O)[C@H]1CN(c2cc(-n3ncc4cc(C)c(C5CCN(C)CC5(F)F)cc43)nc(OC)n2)CCO1 (single isomer, unassigned) [Example E18] | 0.0126 | 0.0126 | –
3 | COc1nc(N2CCOCC2)cc(-n2ncc3cc(C)c(C4CCN(C5COC5)CC4(F)F)cc32)n1 (single isomer, unassigned) [Example E22, 4-(6-(6-(3,3-Difluoro-1-(oxetan-3-yl)piperidin-4-yl)-5-methyl-1H-indazol-1-yl)-2-methoxypyrimidin-4-yl)morpholine] | 0.0126 | 0.00794 | –
4 | COc1nc(N2CC(O)C2)cc(-n2ncc3cc(C)c(C4CCN(C)CC4F)cc32)n1 (single isomer, unassigned) [Example E38, (cis)-1-(6-(6-(3-Fluoro-1-methylpiperidin-4-yl)-5-methyl-1H-indazol-1-yl)-2-methoxypyrimidin-4-yl)azetidin-3-ol] | 0.0316 | – | 8
5 | COc1nc(N2CC(O)C2)cc(-n2ncc3cc(C)c(C4CCN(C)CC4F)cc32)n1 (single isomer, unassigned) [Example E39, (cis)-1-(6-(6-(3-Fluoro-1-methylpiperidin-4-yl)-5-methyl-1H-indazol-1-yl)-2-methoxypyrimidin-4-yl)azetidin-3-ol] | 0.00501 | 0.01 | –
6 | Cc1nc(N2CC(O)C2)cc(-n2ncc3cc(C)c(C4CCN(C)CC4F)cc32)n1 (single isomer, unassigned) [Example E40, (cis)-1-(6-(6-(3-Fluoro-1-methylpiperidin-4-yl)-5-methyl-1H-indazol-1-yl)-2-methylpyrimidin-4-yl)azetidin-3-ol] | 0.0501 | 0.0126 | –
7 | Cc1nc(N2CC(O)C2)cc(-n2ncc3cc(C)c(C4CCN(C)CC4F)cc32)n1 (single isomer, unassigned) [Example E41, (cis)-1-(6-(6-(3-Fluoro-1-methylpiperidin-4-yl)-5-methyl-1H-indazol-1-yl)-2-methylpyrimidin-4-yl)azetidin-3-ol] | 0.126 | – | 7.9
8 | Cc1cc2cnn(-c3cc(N4CC(O)C4)nc(OC(F)F)n3)c2cc1C1CCN(C)CC1F (single isomer, unassigned) [Example E48, (cis)-1-(2-(Difluoromethoxy)-6-(6-(3-fluoro-1-methylpiperidin-4-yl)-5-methyl-1H-indazol-1-yl)pyrimidin-4-yl)azetidin-3-ol] | – | ≤ 10 | –
9 | COc1nc(N2CCOCC2)cc(-n2ncc3cc(C)c([C@H]4CCNC[C@H]4F)cc32)n1 (single isomer, unassigned) [Example E62, (cis)-4-(6-(6-(3-Fluoropiperidin-4-yl)-5-methyl-1H-indazol-1-yl)-2-methoxypyrimidin-4-yl)morpholine hydrochloride] | 0.0501 | 0.00794 | –
10 | COc1nc(N2CC(C#N)C2)cc(-n2ncc3cc(C)c(C4CCNCC4(F)F)cc32)n1 (single isomer, unassigned) [Example E66, 1-(6-(6-(3,3-Difluoropiperidin-4-yl)-5-methyl-1H-indazol-1-yl)-2-methoxypyrimidin-4-yl)azetidine-3-carbonitrile] | 0.126 | 0.0316 | –
11 | Cc1nc(N2CCOC(C(C)O)C2)cc(-n2ncc3cc(C)c(C4CCN(C5COC5)CC4)cc32)n1 (single isomer, unassigned) [Example E268, 1-(4-(2-Methyl-6-(5-methyl-6-(1-(oxetan-3-yl)piperidin-4-yl)-1H-indazol-1-yl)pyrimidin-4-yl)morpholin-2-yl)ethanol] | ≤ 0.1 | – | –
12 | Cc1nc(N2CCO[C@H](CO)C2)cc(-n2ncc3cc(C)c(C4CCCCO4)cc32)n1 (single isomer, unassigned) [Example E271] | > 10 | – | –
13 | Cc1nc(N2CC(O)C2)cc(-n2ncc3cc(C)c(C4CCCOC4)cc32)n1 (single isomer, unassigned) [Example E272, 1-(2-Methyl-6-(5-methyl-6-(tetrahydro-2H-pyran-3-yl)-1H-indazol-1-yl)pyrimidin-4-yl)azetidin-3-ol] | > 10 | – | –
14 | Cc1nc(N2CC(O)C2)cc(-n2ncc3cc(C)c(C4CCOCC4)cc32)n1 [Example E89, 1-(2-Methyl-6-(5-methyl-6-(tetrahydro-2H-pyran-4-yl)-1H-indazol-1-yl)pyrimidin-4-yl)azetidin-3-ol] | ≤ 0.1 | – | –
15 | COc1nc(N2CC(OCCO)C2)cc(-n2ncc3cc(C)c(C4CCOCC4)cc32)n1 [Example E237, 2-((1-(2-Methoxy-6-(5-methyl-6-(tetrahydro-2H-pyran-4-yl)-1H-indazol-1-yl)pyrimidin-4-yl)azetidin-3-yl)oxy)ethanol] | ≤ 0.1 | – | –
16 | Cc1nc(N2CC(O)C2)cc(-n2ncc3cc(Cl)c(N4CCC(O)CC4)cc32)n1 [Example E258, 1-(5-Chloro-1-(6-(3-hydroxyazetidin-1-yl)-2-methylpyrimidin-4-yl)-1H-indazol-6-yl)piperidin-4-ol] | ≤ 0.1 | – | –
